These results are taken from ChEMBL document CHEMBL4020798, “Anti-inflammatory effects and corresponding mechanisms of cirsimaritin extracted from Cirsium japonicum var. maackii Maxim” (Bioorg Med Chem Lett, 2017).

Structures are written as SMILES. Values after ≈ are worked out from the molar mass of the structure shown. Active and inactive are the calls of the source. The calls are words filed in the database; no cut-off is given here.

Data set [1] deals with T1, NF-kappa-B inhibitor alpha (Mus musculus) (UniProt Q9Z1E3).
T1 sequence (whole entry): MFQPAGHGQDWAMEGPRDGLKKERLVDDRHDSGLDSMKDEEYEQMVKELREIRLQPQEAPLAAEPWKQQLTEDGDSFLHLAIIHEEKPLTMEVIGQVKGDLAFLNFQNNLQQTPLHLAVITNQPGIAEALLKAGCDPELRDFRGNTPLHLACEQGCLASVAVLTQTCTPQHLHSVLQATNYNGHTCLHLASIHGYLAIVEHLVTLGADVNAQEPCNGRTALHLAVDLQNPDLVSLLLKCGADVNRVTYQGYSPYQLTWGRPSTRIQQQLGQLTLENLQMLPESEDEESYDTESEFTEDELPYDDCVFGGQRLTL
As to the kind of experiment: Inhibition of IkappaBalpha degradation in mouse RAW264.7 cells at 5 to 10 ug/ml preincubated for 1 hr followed by LPS-stimulation for 1 hr by Western blot method. Type of data set: cell-based.

Data set [2] has as its system RAW264.7. Nature of the data set: Downregulation of IL-6 mRNA expression levels in mouse RAW264.7 cells at 5 to 10 ug/ml preincubated for 1 hr followed by LPS-stimulation for 4 hrs by qRT-PCR method. Type of data set: functional, cell-based.
Data set [3] concerns RAW264.7. Nature of the data set: Cytotoxicity against mouse RAW264.7 cells assessed as decrease in cell viability at 1 to 12 ug/ml pretreated for 1 hr followed by LPS stimulation for 20 hrs by CCK8/EZ-cytox assay. Type of data set: cell-based. Conditions: raw264.7, 20 h.
The target in data set [4] is T2, Nitric oxide synthase, inducible (Mus musculus) (UniProt P29477).
T2 sequence (whole entry): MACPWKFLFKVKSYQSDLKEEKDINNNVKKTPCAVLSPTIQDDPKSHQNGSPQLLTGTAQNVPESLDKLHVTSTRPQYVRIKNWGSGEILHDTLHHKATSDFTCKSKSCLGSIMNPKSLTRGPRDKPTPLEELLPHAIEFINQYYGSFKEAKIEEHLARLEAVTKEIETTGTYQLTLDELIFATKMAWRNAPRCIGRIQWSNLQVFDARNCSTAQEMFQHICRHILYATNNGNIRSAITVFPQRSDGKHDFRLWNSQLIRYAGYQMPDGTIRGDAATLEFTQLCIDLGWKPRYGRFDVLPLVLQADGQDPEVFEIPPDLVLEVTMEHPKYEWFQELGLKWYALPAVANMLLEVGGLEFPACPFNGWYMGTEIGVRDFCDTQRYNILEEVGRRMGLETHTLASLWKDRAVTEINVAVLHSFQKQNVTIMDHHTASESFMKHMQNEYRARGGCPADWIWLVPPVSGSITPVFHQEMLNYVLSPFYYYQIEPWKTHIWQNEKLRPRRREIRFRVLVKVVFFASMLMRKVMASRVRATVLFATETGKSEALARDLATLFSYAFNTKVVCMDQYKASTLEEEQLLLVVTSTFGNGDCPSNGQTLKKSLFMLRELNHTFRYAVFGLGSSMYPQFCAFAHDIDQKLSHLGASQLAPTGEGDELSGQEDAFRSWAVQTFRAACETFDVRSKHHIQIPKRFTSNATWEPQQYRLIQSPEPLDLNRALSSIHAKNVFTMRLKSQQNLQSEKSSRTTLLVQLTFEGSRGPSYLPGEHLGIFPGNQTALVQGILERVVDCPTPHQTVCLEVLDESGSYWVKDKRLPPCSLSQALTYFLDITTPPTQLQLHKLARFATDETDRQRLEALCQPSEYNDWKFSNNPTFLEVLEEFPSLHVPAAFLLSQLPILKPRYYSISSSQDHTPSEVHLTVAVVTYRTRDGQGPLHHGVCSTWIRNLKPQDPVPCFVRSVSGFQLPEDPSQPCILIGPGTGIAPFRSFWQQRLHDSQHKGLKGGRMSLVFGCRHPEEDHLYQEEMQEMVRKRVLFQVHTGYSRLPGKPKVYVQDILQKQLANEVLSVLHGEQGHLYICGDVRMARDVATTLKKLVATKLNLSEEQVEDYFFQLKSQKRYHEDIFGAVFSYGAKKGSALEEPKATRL
Nature of the data set: Inhibition of LPS-induced iNOS expression in mouse RAW264.7 cells at 5 to 10 ug/ml pretreated for 1 hr followed by LPS stimulation for 20 hrs by immunoblotting method. Format: cell-based.

Data set [5] deals with RAW264.7. Nature of the data set: Antiinflammatory activity in mouse RAW264.7 cells assessed as inhibition of LPS-induced TNFalpha release preincubated for 1 hr followed by LPS addition for 20 hrs by sandwich ELISA. Format: functional, cell-based.
The subject of data set [6] is RAW264.7. As to the kind of experiment: Antiinflammatory activity in mouse RAW264.7 cells assessed as inhibition of LPS-induced IL-6 production preincubated for 1 hr followed by LPS addition for 20 hrs by sandwich ELISA. Format: functional, cell-based.
The subject of data set [7] is RAW264.7. As to the kind of experiment: Inhibition of LPS-induced NO production in mouse RAW264.7 cells at 2 to 10 ug/ml preincubated for 1 hr followed by LPS-stimulation measured after 20 hrs by Griess assay. Type of data set: functional, cell-based.
For data set [8], the system named is RAW264.7. Nature of the data set: Downregulation of TNFalpha mRNA expression levels in mouse RAW264.7 cells at 5 to 10 ug/ml preincubated for 1 hr followed by LPS-stimulation for 4 hrs by qRT-PCR method. Format: functional, cell-based.
Data set [9] concerns RAW264.7. Nature of the data set: Downregulation of iNOS mRNA expression levels in mouse RAW264.7 cells at 5 to 10 ug/ml preincubated for 1 hr followed by LPS-stimulation for 4 hrs by qRT-PCR method. Format: functional, cell-based.
The target of data set [10] is T1, NF-kappa-B inhibitor alpha (Mus musculus). Nature of the data set: Inhibition of IkappaBalpha phosphorylation in mouse RAW264.7 cells at 5 to 10 ug/ml preincubated for 1 hr followed by LPS-stimulation for 1 hr by Western blot method. Format: cell-based.
Data set [11] has as its target RAC-alpha serine/threonine-protein kinase (Mus musculus) (UniProt P31750). As to the kind of experiment: Inhibition of Akt-phosphorylation in mouse RAW264.7 cells at 5 to 10 ug/ml preincubated for 1 hr followed by LPS-stimulation for 1 hr by Western blot analysis. Format: cell-based.
For data set [12], the species on record is Mus musculus. Nature of the data set: Inhibition of JNK-phosphorylation in mouse RAW264.7 cells at 5 to 10 ug/ml preincubated for 1 hr followed by LPS-stimulation for 1 hr by Western blot analysis. Format: cell-based.
Data set [13] is filed under the species Mus musculus. As to the kind of experiment: Inhibition of ERK-phosphorylation in mouse RAW264.7 cells at 5 to 10 ug/ml preincubated for 1 hr followed by LPS-stimulation for 1 hr by Western blot analysis. Type of data set: cell-based.
For data set [14], the target named is MAP kinase p38 (Mus musculus) (UniProt P47811+O08911+Q9WUI1+Q9Z1B7). Nature of the data set: Inhibition of p38-phosphorylation in mouse RAW264.7 cells at 5 to 10 ug/ml preincubated for 1 hr followed by LPS-stimulation for 1 hr by Western blot analysis. Type of data set: cell-based.
Data set [15] addresses Protein c-Fos (Mus musculus) (UniProt P01101). Nature of the data set: Inhibition of c-fos-phosphorylation in mouse RAW264.7 cells preincubated for 1 hr followed by LPS-stimulation for 20 hrs by Western blot analysis. Type of data set: cell-based.
In data set [16] the target is Signal transducer and activator of transcription 3 (Mus musculus) (UniProt P42227). As to the kind of experiment: Inhibition of STAT3 phosphorylation at Y705 residue in mouse RAW264.7 cells preincubated for 1 hr followed by LPS-stimulation for 20 hrs by Western blot analysis. Format: cell-based.
Chain of Signal transducer and activator of transcription 3 (Mus musculus) (P42227 whole entry): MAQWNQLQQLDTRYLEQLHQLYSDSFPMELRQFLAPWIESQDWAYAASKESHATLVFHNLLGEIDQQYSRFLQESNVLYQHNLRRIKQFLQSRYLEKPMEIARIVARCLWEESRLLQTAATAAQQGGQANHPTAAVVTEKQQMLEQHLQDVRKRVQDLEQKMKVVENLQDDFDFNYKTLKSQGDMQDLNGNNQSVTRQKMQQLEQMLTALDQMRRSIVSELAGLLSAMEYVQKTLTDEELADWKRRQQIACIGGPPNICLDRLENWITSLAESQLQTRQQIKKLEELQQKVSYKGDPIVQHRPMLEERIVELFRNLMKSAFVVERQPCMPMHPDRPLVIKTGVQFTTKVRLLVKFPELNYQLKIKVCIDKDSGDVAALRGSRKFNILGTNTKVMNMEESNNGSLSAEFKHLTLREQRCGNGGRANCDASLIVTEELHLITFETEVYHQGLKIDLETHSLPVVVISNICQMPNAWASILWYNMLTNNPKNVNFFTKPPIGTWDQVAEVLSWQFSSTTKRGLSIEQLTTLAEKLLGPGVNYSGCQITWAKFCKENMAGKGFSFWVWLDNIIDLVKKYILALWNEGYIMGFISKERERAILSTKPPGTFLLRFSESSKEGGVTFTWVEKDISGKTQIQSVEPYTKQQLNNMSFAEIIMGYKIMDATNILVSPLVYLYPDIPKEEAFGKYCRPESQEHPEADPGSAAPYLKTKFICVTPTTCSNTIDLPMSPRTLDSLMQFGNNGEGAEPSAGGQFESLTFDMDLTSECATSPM
The target is the same in data set [17]. As to the kind of experiment: Inhibition of STAT3 phosphorylation at S727 residue in mouse RAW264.7 cells preincubated for 1 hr followed by LPS-stimulation for 20 hrs by Western blot analysis. Type of data set: cell-based.
Data set [18] relates to RAW264.7. As to the kind of experiment: Cytotoxicity against mouse RAW264.7 cells assessed as decrease in cell viability incubated for 20 hrs by EZ-cytox assay. Format: cell-based. Conditions: RAW264.7, 20 h.

Chain of Protein c-Fos (Mus musculus) (P01101 whole entry): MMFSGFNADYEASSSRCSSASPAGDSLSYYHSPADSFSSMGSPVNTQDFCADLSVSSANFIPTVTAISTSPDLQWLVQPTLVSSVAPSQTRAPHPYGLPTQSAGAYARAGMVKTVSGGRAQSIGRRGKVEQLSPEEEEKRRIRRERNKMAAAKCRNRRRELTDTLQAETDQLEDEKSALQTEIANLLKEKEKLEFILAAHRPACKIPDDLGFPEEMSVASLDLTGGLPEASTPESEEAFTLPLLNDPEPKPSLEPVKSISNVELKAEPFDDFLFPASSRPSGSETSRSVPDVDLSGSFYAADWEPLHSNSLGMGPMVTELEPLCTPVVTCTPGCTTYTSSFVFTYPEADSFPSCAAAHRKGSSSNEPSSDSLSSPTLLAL
Chain of RAC-alpha serine/threonine-protein kinase (Mus musculus) (P31750 whole entry): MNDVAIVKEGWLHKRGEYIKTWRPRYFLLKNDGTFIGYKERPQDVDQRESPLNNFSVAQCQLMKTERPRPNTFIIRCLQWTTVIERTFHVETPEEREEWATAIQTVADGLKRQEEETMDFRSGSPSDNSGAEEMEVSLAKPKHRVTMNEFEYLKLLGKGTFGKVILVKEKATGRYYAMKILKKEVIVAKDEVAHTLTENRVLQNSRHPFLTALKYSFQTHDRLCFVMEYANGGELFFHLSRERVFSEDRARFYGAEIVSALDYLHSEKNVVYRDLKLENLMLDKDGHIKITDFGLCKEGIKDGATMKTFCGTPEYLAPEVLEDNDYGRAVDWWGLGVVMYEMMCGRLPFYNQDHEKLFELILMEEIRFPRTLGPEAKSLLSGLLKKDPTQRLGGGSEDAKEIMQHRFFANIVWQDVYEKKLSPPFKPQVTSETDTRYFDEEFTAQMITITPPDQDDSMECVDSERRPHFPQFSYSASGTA

In the case of `COc1cc2oc(-c3ccc(O)cc3)cc(=O)c2c(O)c1OC` [CIRSIMARITIN], the inhibition result in [1], in data set [4], in data set [7], in data set [10] and in data set [11] was “Active” each time. Moreover, the Activity result is “Dose-dependent effect” in data set [2], “Non-Toxic” in [3], “Dose-dependent effect” in [8] and “Dose-dependent effect” in [9]. The inhibition entry in data set [5], in data set [6], in data set [15], in [16] and in data set [17] was “Dose-dependent effect” each time. The inhibition entry in [12], in data set [13] and in data set [14] was “inactive” throughout. Also, the IC50 in data set [18] was 111 µg/mL (≈ 353 µM).
